Laboratory results: patent publication US20240115536A1, “DUAL-ACTING PHARMACEUTICAL COMPOSITIONS BASED ON SUPERSTRUCTURES OF ANGIOTENSIN RECEPTOR ANTAGONIST/BLOCKER (ARB) AND NEUTRAL ENDOPEPTIDASE (NEP) INHIBITOR” (Novartis AG, priority 2007, published 2024)
Like-named read-outs stand apart in the source and are kept apart here.

Tests used:
[1] = Dissolution testing, USP paddle method, pH 6.8 phosphate buffer, 50 rpm; assay type: physicochemical
Method: The term “dissolution” as used herein refers to a process by which a solid substance, here the active ingredients, is dispersed in molecular form in a medium. The dissolution rate of the active ingredients of the pharmaceutical oral fixed dose combination of the invention is defined by the amount of drug substance that goes in solution per unit time under standardized conditions of liquid/solid interface, temperature and solvent composition. The dissolution rate is measured by standard methods known to the person skilled in the art, see the harmonized procedure set forth in the pharmacopeias USP <711> and EP 2.9.3 and JP. For the purposes of this invention, the test is for measuring the dissolution of the individual active ingredients is performed following pharmacopeia USP <711> at pH 6.8 using a paddle stirring element at 50 rpm (rotations per minute) or alternatively at pH 4.5 using a paddle stirring element at 75 rpm as specified. The dissolution medium is preferably a buffer, typically a phosphate buffer, especially one as described in the example “Dissolution Test”.
The tablets of the Examples are tested for their dissolution in 900 ml of pH 6.8 phosphate buffer with paddles at 50 rpm.
The assembly consists of the following: a covered vessel made of glass or other inert, transparent material; a motor, and a paddle formed from a blade and shaft as the stirring element. The vessel is partially immersed in a suitable water bath of any convenient size or placed in a heating jacket. The water bath or heating jacket permits holding the temperature inside the vessels at 37±0.5° during the test and keeping the bath fluid in constant, smooth motion. No part of the assembly, including the environment in which the assembly is placed, contributes significant motion, agitation, or vibration beyond that due to the smoothly rotating stirring element. Apparatus that permits observation of the specimen and stirring element during the test is has the following dimensions and capacities: the height is 160 mm to 210 mm and its inside diameter is 98 mm to 106 mm. Its sides are flanged at the top. A fitted cover may be used to retard evaporation. The shaft is positioned so that its axis is not more than 2 mm at any point from the vertical axis of the vessel and rotates smoothly without significant wobble. The vertical center line of the blade passes through the axis of the shaft so that the bottom of the blade is flush with the bottom of the shaft. The design of the paddle is as shown in USP <711>, FIG. 2. The distance of 25±2 mm between the blade and the inside bottom of the vessel is maintained during the test. The metallic or suitably inert, rigid blade and shaft comprise a single entity. A suitable two-part detachable design may be used provided the assembly remains firmly engaged during the test. The paddle blade and shaft may be coated with a suitable inert coating. The dosage unit is allowed to sink to the bottom of the vessel before rotation of the blade is started. A small, loose piece of nonreactive material such as not more than a few turns of wire helix may be attached to dosage units that would otherwise float. Other validated sinker devices may be used.
1L of a buffered aqueous solution, adjusted to pH 6.8±0.05 (0.05 M Phosphate buffer solution obtained by dissolving 6.805 g of potassium dihydrogen phosphate and 0.896 g of sodium hydroxide in and diluting to 1000 ml with water, and adjusting the pH to 6.80±0.05 using 0.2 M sodium hydroxide or 1 M phosphoric acid; referred hereinafter as “Dissolution Medium”) is placed in the vessel of the apparatus, the apparatus is assembled, the Dissolution Medium is equilibrated to 37±0.5°, and the thermometer is removed. 1 dosage form (e.g. tablet or capsule) is placed on the apparatus, taking care to exclude air bubbles from the surface of the dosage-form unit, and immediately the apparatus is operated at a rate of 50+2 rpm. […]

[2] = Measurement of pharmacokinetic parameters, ascending single dose 5, 20, 80 mg LCZ696 vs 40 mg Diovan
Method: The study employs a two-period, parallel group, ascending single dose (5, 20, 80 mg of LCZ696 and 40 mg Diovan® (marketed formulation of valsartan), placebo controlled design with dose selection based on FDA exploratory-IND guidance. The dosages of LCZ696 are obtained by using the 5 mg and 50 mg tablets as manufactured above and employing for the 20 mg and 80 mg dose multiple tablets of 5 mg and/or 50 mg strength.
To enable comparison of the exposure to valsartan between LCZ696 and Diovan® at different dose levels, valsartan's exposure (AUC) and Cmax values are normalized to the actual amount of anhydrous salt-free- valsartan administered (normalized by mg-equivalent). The AUC0-24 values are calculated as ng·h/ml/mg-equivalent of valsartan, and the geometric means are compared.

[3] = for AUC0-24 for valsartan / Cmax for valsartan / t1/2 for valsartan / tmax for valsartan: healthy volunteers
[4] = Cohort A (5 mg LCZ696; 40 mg Diovan)
[5] = Cohort B (20 mg LCZ696; 40 mg Diovan)
[6] = Cohort C (80 mg LCZ696; 40 mg Diovan)
[7] = Combined Cohorts A-B-C (pooled data)
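Wherever AUC0-24 for valsartan is given: randomized double-blind placebo-controlled parallel-group study with ascending single doses and 14-day daily dosing cohorts, pharmacokinetics measured in healthy volunteers.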
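Wherever Cmax for valsartan is given: randomized double-blind placebo-controlled parallel-group study with ascending single doses and 14-day daily dosing cohorts, pharmacokinetics measured in healthy volunteers.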
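Wherever accumulation of all analytes is given: randomized double-blind placebo-controlled parallel-group study with ascending single doses and 14-day daily dosing cohorts, pharmacokinetics measured in healthy volunteers.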
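Wherever t1/2 for valsartan is given: randomized double-blind placebo-controlled parallel-group study with ascending single doses and 14-day daily dosing cohorts, pharmacokinetics measured in healthy volunteers.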

CCCCC(=O)N(Cc1ccc(-c2ccccc2-c2nn[n-]n2)cc1)[C@H](C(=O)[O-])C(C)C.CCOC(=O)[C@H](C)C[C@@H](Cc1ccc(-c2ccccc2)cc1)NC(=O)CCC(=O)[O-].[Na+].[Na+].[Na+] [LCZ696, trisodium [3-((1S,3R)-1-biphenyl-4-ylmethyl-3-ethoxycarbonyl-1-butylcarbamoyl) propionate-(S)-3′-methyl-2′-(pentanoyl{2″-(tetrazol-5-ylate)biphenyl-4′-ylmethyl}amino)butyrate]hemipentahydrate]
mean valsartan free acid released ([1]; about 100 mg per unit dosage form, after 10 min): about 50% | mean valsartan free acid released ([1]; about 100 mg per unit dosage form, after 20 min): about 85% | mean valsartan free acid released ([1]; about 100 mg per unit dosage form, after 30 min): about 95% | mean valsartan free acid released ([1]; about 200 mg per unit dosage form, after 10 min): about 50% | mean valsartan free acid released ([1]; about 200 mg per unit dosage form, after 20 min): about 85% | mean valsartan free acid released ([1]; about 200 mg per unit dosage form, after 30 min): about 95% | mean valsartan free acid released ([1]; about 400 mg per unit dosage form, after 10 min): about 40% | mean valsartan free acid released ([1]; about 400 mg per unit dosage form, after 20 min): about 70% | mean valsartan free acid released ([1]; about 400 mg per unit dosage form, after 30 min): about 90% | dose linearity of valsartan exposures ([2]; 5, 20, 80 mg LCZ696 single dose): dose linear | AUC0-24, dose-normalized, geometric mean, valsartan [2, 4]: 364 ng * h/ml/mg-equivalent | AUC0-24 ratio LCZ696/Diovan [2, 4]: 1.81 | AUC0-inf ratio LCZ696/Diovan [2, 4]: 1.81 | AUC0-inf, dose-normalized, geometric mean, valsartan [2, 4]: 372 ng * h/ml/mg-equivalent | Cmax ratio LCZ696/Diovan [2, 4]: 2.09 | Cmax, dose-normalized, geometric mean, valsartan [2, 4]: 56 ng/ml/mg-equivalent | AUC0-24, dose-normalized, geometric mean, valsartan [2, 5]: 280 ng * h/ml/mg-equivalent | AUC0-24 ratio LCZ696/Diovan [2, 5]: 1.38 | AUC0-inf ratio LCZ696/Diovan [2, 5]: 1.38 | AUC0-inf, dose-normalized, geometric mean, valsartan [2, 5]: 284 ng * h/ml/mg-equivalent | Cmax ratio LCZ696/Diovan [2, 5]: 1.69 | Cmax, dose-normalized, geometric mean, valsartan [2, 5]: 44 ng/ml/mg-equivalent | AUC0-24, dose-normalized, geometric mean, valsartan [2, 6]: 244 ng * h/ml/mg-equivalent | AUC0-24 ratio LCZ696/Diovan [2, 6]: 1.67 | AUC0-inf ratio LCZ696/Diovan [2, 6]: 1.64 | AUC0-inf, dose-normalized, geometric mean, valsartan [2, 6]: 245 ng * h/ml/mg-equivalent | Cmax ratio LCZ696/Diovan [2, 6]: 2.1 | Cmax, dose-normalized, geometric mean, valsartan [2, 6]: 43 ng/ml/mg-equivalent | AUC0-24, dose-normalized, geometric mean, valsartan [2, 7]: 292 ng * h/ml/mg-equivalent | AUC0-24 ratio LCZ696/Diovan [2, 7]: 1.61 | AUC0-inf ratio LCZ696/Diovan [2, 7]: 1.6 | AUC0-inf, dose-normalized, geometric mean, valsartan [2, 7]: 296 ng * h/ml/mg-equivalent | Cmax ratio LCZ696/Diovan [2, 7]: 1.95 | Cmax, dose-normalized, geometric mean, valsartan [2, 7]: 47 ng/ml/mg-equivalent | tmax of valsartan free acid ([2]; oral administration): 1.8 ± 0.3 h | enhanced oral bioavailability of valsartan free acid versus Diovan formulation ([2]; oral, analyte valsartan free acid, listed as therapeutic agent): 1.6 fold | tmax for valsartan (mean) ([2]; single dose, range of cohort means): 1.3 to 1.8 h | ratio of geometric means for AUC, LCZ696/Diovan ([2]; valsartan, dose-equivalent normalized, pooled cohorts): 161% | AUC0-24 for valsartan ([3]; 50 mg daily for 14 days): 6935 ng·h/mL | Cmax for valsartan ([3]; 50 mg daily for 14 days): 1233 ng/mL | t1/2 for valsartan ([3]; 50 mg daily for 14 days): 15.2 h | tmax for valsartan ([3]; 50 mg daily for 14 days): 1.6 h | AUC0-24 for valsartan ([3]; 200 mg daily for 14 days): 21079 ng·h/mL | Cmax for valsartan ([3]; 200 mg daily for 14 days): 3990 ng/mL | t1/2 for valsartan ([3]; 200 mg daily for 14 days): 22.1 h | tmax for valsartan ([3]; 200 mg daily for 14 days): 1.8 h | AUC0-24 for valsartan ([3]; 600 mg daily for 14 days): 58876 ng·h/mL | Cmax for valsartan ([3]; 600 mg daily for 14 days): 8563 ng/mL | t1/2 for valsartan ([3]; 600 mg daily for 14 days): 22.6 h | tmax for valsartan ([3]; 600 mg daily for 14 days): 2.2 h | AUC0-24 for valsartan ([3]; 900 mg daily for 14 days): 54920 ng·h/mL | Cmax for valsartan ([3]; 900 mg daily for 14 days): 8960 ng/mL | t1/2 for valsartan ([3]; 900 mg daily for 14 days): 15.0 h | tmax for valsartan ([3]; 900 mg daily for 14 days): 4.9 h | accumulation of all analytes ([3]; 50-900 mg LCZ696 once daily for 14 days): Minimal accumulation | AUC0-24 for valsartan ([3]; single dose 200 mg): 16970 ng·h/mL | Cmax for valsartan ([3]; single dose 200 mg): 3309 ng/mL | t1/2 for valsartan ([3]; single dose 200 mg): 11.7 h | tmax for valsartan ([3]; single dose 200 mg): 1.7 h | AUC0-24 for valsartan ([3]; single dose 600 mg): 40645 ng·h/mL | Cmax for valsartan ([3]; single dose 600 mg): 7269 ng/mL | t1/2 for valsartan ([3]; single dose 600 mg): 16.6 h | tmax for valsartan ([3]; single dose 600 mg): 1.9 h | AUC0-24 for valsartan ([3]; single dose 900 mg): 53568 ng·h/mL | Cmax for valsartan ([3]; single dose 900 mg): 8374 ng/mL | t1/2 for valsartan ([3]; single dose 900 mg): 14.9 h | tmax for valsartan ([3]; single dose 900 mg): 2.2 h | AUC0-24 for valsartan ([3]; single dose 1200 mg): 60118 ng·h/mL | Cmax for valsartan ([3]; single dose 1200 mg): 7448 ng/mL | t1/2 for valsartan ([3]; single dose 1200 mg): 8.9 h | tmax for valsartan ([3]; single dose 1200 mg): 2.2 h
